The values that follow come from patent publication US9897592B2, “Methods for identifying arthropod repellents and attractants, and compounds and compositions identified by such methods” (The Regents of the University of California, priority 2013, dated 2018).

The subject of experiment [1] is cpA neuron. Put plainly: Single-sensillum recording: activation of cpA neuron by odorants. Type of experiment: cell-based, Aedes aegypti. The following applies: for Activation (spikes s^−1): A. aegypti cpA, 0.5-s pulses, odorants 10^−2 in paraffin oil or water, solvent response subtracted. Here is the method: FIG. 3b depicts representative traces and mean responses of the A. aegypti cpA neuron to 0.5-s pulses of 138 predicted compounds screened using single-sensillum recordings, in which odorants were diluted to 10^−2 in paraffin oil or water, and responses to solvent have been subtracted, n=2-6, and error bars are s.d.
FIG. 5f is a bar graph illustrating the mean responses of the A. aegypti cpA neuron to 0.5-s pulses of 22 newly predicted compounds screened as in FIG. 3b, where salmon bars correspond to odorants found in human odor, odorants were diluted to 10^−2 in paraffin oil or water, and responses to solvent have been subtracted, and n=2-5.
Adult female A. aegypti (Linnaeus 1762) (Rockefeller strain) A. gambiae sensu stricto Giles 1902 (G3 strain), or C. quinquefasciatus Say 1823 were tested 3-12 days post-emergence with single-sensillum extracellular recordings. Chemicals were obtained from Sigma-Aldrich at the highest purity (typically >99%) and were dissolved in paraffin oil or water. […] Response to clean beads was subtracted from the results reported. Only sensilla with cpA activity of <20 spikes s^−1 to negative control were considered for analysis.
(§1) CpA-off and sham treated mosquitoes were pre-treated for 3 min in an upended 1 L glass dish in which 100 μl of fresh butyryl chloride (1%) or paraffin oil was allowed to vaporize for 10-20 min. The odor delivery system for different screens is shown in FIG. 7b; solvent responses during the same recording session were subtracted. Inhibition screen was tested. For the ultra-prolonged activator the 3-s stimulus was delivered from a 10 ml disposable pipette using a CS-55 stimulus controller (Syntech), CO2 was delivered, and responses to subsequent odor stimuli were calculated by subtracting baseline activity 1 s prior to each stimulus. When responses to repeated pulses of cyclopentanone and CO2 were compared, baseline activity between seconds 5 and 6 following each stimulus was subtracted. Spike counting was done manually or with Igor Pro6.2 (Wavemetrics) with the Neuromatic v2.00 macro (by Jason Rothman), and peak-to-peak spike amplitudes for FIG. 8 were analysed in Clampfit 10.3 (Molecular Devices).
From the large list of cpA receptor ligands predicted from Example 3 above, 138 compounds were selected based on desirable criteria for application such as smell, presence in natural sources, human safety profile, and cost to procure. These compounds were tested individually using single-sensillum electrophysiology on the cp sensillum of female A. aegypti, according to the procedure described in Example 1 above.

Experiment [2] deals with cpA neuron. The experiment in a line: Inhibition screen: odorant overlaid on 0.15% CO2 stimulus, cpA response. Type of experiment: cell-based, Aedes aegypti. The settings on record: for % Inhibition: 1-s odorant stimulus (10^−2) in the middle of a 3-s 0.15% CO2 stimulus, vs solvent overlay. The procedure:
Percent inhibition was calculated by comparing mean odorant overlay responses to mean solvent overlay responses, and error bars are s.d.
as §1

Experiment [3] relates to cpA neuron. The experiment in a line: Ultra-prolonged activation: cpA firing after 3-s odorant exposure. The experiment is classed as cell-based, Aedes aegypti.
Description: FIG. 3d depicts representative traces from the A. aegypti cp sensillum to 1-s pulses of 0.15% CO2 prior to and following a 3-s exposure to either solvent (paraffin oil) or (E)-2-methylbut-2-enal (10^−1).
FIG. 3e is a graph illustrating the cpA baseline activity in the 1 s prior to each stimulus is elevated following exposure to odorant, where error bars are s.e.m.
FIG. 3f is a bar graph illustrating the mean responses of the cpA neuron to 1-s pulses of 0.15% CO2, calculated by subtracting the 1 s of the baseline activity prior to each stimulus, where n=5-6 individuals, analysed by t-test, ***p<0.001, and error bars are s.e.m.
as §1

Experiment [4] deals with CO2 receptor neuron. The experiment in a line: Amines: inhibition of CO2 receptor neuron activity. The experiment is classed as cell-based. On the set-up: % Inhibition: concentration or dose not given beside the values. The settings on record: for Average % Inhibition: dose response.
The next experiment concerns CO2 receptor. The following applies: cited from earlier work.
In the next experiment the test system is C. quinquefasciatus. The experiment in a line: Semi-field two-choice greenhouse trapping. The experiment is classed as in vivo, Culex quinquefasciatus. The settings on record: 10% lactic acid bait. From the text:
FIG. 4g is a schematic of two-choice greenhouse experiments with two counterflow geometry traps, in which mosquitoes were trapped overnight in odorant-baited and solvent (water)-baited traps.
Semi-field trapping: Two modified greenhouses at the Agricultural Experiment Station at the University of California, Riverside, were used as described previously^2, with modifications. Fifty laboratory-reared, mated, non-blood fed female C. quinquefasciatus aged 8-14 days and starved for 24 hrs were released each evening around 5 pm and traps collected at ˜7 am. Counter flow geometry traps baited with CO2 (250 ml min^−1, ˜670 mmol/hr) odorant were used as described^2, with modifications. Odorant solutions in water were dispensed from 20 cm long gauze wicks protruding from uncapped 50 ml tubes beneath the trap outflow. For each trial, one baited trap and one control trap (water-filled) were placed in each of two greenhouses (FIG. 4g). For two-choice CO2 trials, water was placed under both traps. For two-choice ethyl pyruvate trials, both traps expelled CO2, and one trap also released ethyl pyruvate from an open 2.8×7 cm glass vial. Since ethyl pyruvate has very low volatility pure compound was used to generate ˜1.7 mmol/hr. An empty vial was placed under control traps. Treatment position and trap were alternated across trials. Volume of solution lost from tubes containing 5%, 10%, or 20% cyclopentanone were measured after each trial and the average loss of molecules calculated respectively for 3 concentrations as (±s.d.) of 0.7 (±0.1), 1.7 (±0.4), and 3.8 (±0.3) mmol/hr, respectively. Preference index=(# mosquitoes in odor-baited trap−# mosquitoes in control trap)/(total # mosquitoes caught in both traps).
The efficacy of cyclopentanone as a lure was tested using traps in controlled semi-field experiments with C. quinquefasciatus, a mosquito present in Southern California, where the experiments took place. 50 female mosquitoes were released overnight in a modified greenhouse that contained two counter-flow geometry mosquito traps (FIG. 4g). One trap was baited with an evaporative lure of cyclopentanone diluted in water, and the second trap was baited with water alone.

For experiment [5], the system named is CO2 receptor neuron. The experiment in a line: Activity of CO2 receptor neuron during spermidine and spermine stimulus windows. Type of experiment: cell-based. The settings on record: CO2 receptor neuron activity during stimulus window. The procedure: The polyamines were diluted 0.001 to 10% in paraffin oil (PO). Also shown in Table 7 are the activity values of the CO2 receptor neuron during the spermidine and spermine stimulus windows (error bars=s.e.m.).

Setting [6] is: inhibition of CO2 receptor neuron activity by amines.

Like-named read-outs stand apart in the source and are kept apart here.

As to `CC(C)C=O` [2-methylpropanal], in the experiment with cpA neuron [1], the “Activation (spikes s^−1)” value came out at 29.0 spikes s^−1. Besides, the “% Inhibition” value in the experiment on cpA neuron [2] is on record as 5.8%.

For `C/C=C(\C)C=O` [(E)-2-methylbut-2-enal], the “Activation (spikes s^−1)” value with cpA neuron [1] was determined as 59.5 spikes s^−1. In addition, the “duration of sustained firing of cpA” value with cpA neuron [3] (after 3-s exposure) is “at least 5.5 min”. In addition, the “sustained firing of cpA” value in the experiment with cpA neuron [3] (after 3-s exposure (10^−1)) is on record as approximately 45 spikes s^−1. Besides, in the experiment on cpA neuron [3] (during sustained firing period), the “cpA responses to 1-s pulses of 0.15% CO2 relative to controls” value is reported as “significantly reduced”.

On to `c1cn[nH]c1` [1H-pyrazole], for which the “Activation (spikes s^−1)” value in the experiment on cpA neuron [1] was determined as 3.5 spikes s^−1. The “% Inhibition” value in the experiment with cpA neuron [2] is recorded as 4.9%.

Turning to `CNC` [N-methylmethanamine], in the experiment with CO2 receptor neuron [4], the “% Inhibition” value was 100%.

On to `CC(=O)C=O` [2-oxopropanal], for which, in the experiment with cpA neuron [1], the “Activation (spikes s^−1)” value is given as −2.0 spikes s^−1. For the same molecule, in the experiment on cpA neuron [2], the “% Inhibition” value was −33.6%.

In the case of `COC(=O)C(C)=O` [methyl 2-oxopropanoate], the “fold lower concentration for comparable inhibition vs previously reported inhibitors such as 1-hexanol” value in the experiment on cpA neuron [2] was approximately 10 times. The “inhibition of cpA activity” value in the experiment with cpA neuron [2] (overlaid on 0.15% CO2) is “strongly inhibited”.

As to `CN1CCCC1` [1-methylpyrrolidine], in the experiment with CO2 receptor neuron [4] (setting [6]), the “% Inhibition” value was found to be 100%.

Take `CC(C)CS` [2-methylpropane-1-thiol]: in the experiment on cpA neuron [1], the “Activation (spikes s^−1)” value was determined as 37.0 spikes s^−1. The “% Inhibition” value in the experiment with cpA neuron [2] is reported as −2.9%.

2-ethyl-5(6)-methylpyrazine: the “Activation (spikes s^−1)” value with cpA neuron [1] worked out at 14.0 spikes s^−1. Moreover, the “% Inhibition” value in the experiment on cpA neuron [2] is recorded as −2.0%.

Take `CCCCCCN` [hexan-1-amine]: the “% Inhibition” value in the experiment with CO2 receptor neuron [4] (setting [6]) was 86.61%.

In the case of `CCCC=O` [butyraldehyde], the “inhibition of the CO2 receptor” value in the experiment on CO2 receptor is “strongest known inhibitors”.

As for `CCCC(=O)O` [butanoic acid], in the experiment with CO2 receptor, the “inhibition of the CO2 receptor” value is “strongest known inhibitors”.

Regarding `NCCCNCCCCNCCCN`, the “% Inhibition” value in the experiment with CO2 receptor neuron [4] was 94.81%.

Take `NCCCCNCCCN` [N-(3-aminopropyl)-1,4-butanediamine]: in the experiment with CO2 receptor neuron [4] (setting [6]), the “% Inhibition” value turned out to be 92.25%.

With `CC(O)C(=O)O` (stereo not shown) [2-hydroxypropanoic acid], in the experiment with cpA neuron [1], the “Activation (spikes s^−1)” value was −1.0 spikes s^−1. The “catch vs control traps” value with C. quinquefasciatus is “did not catch significantly more mosquitoes”.

`CCCCCN` [pentan-1-amine]: in the experiment with CO2 receptor neuron [4] (setting [6]), the “% Inhibition” value turned out to be 100%.

Regarding `NCCCCNCCCN` [spermidine], the “Average % Inhibition” value in the experiment with CO2 receptor neuron [4] (0.001% in paraffin oil) is on record as −1.0%; in the experiment with CO2 receptor neuron [4] (0.01% in paraffin oil), 10.6%; with CO2 receptor neuron [4] (0.1% in paraffin oil) it was 85.1%; in the experiment with CO2 receptor neuron [4] (1% in paraffin oil) it was 92.2%; in the experiment with CO2 receptor neuron [4] (10% in paraffin oil), 91.3%. In addition, the “Ave. Activity” value amounted to 62.3 in the experiment with CO2 receptor neuron [5] (0.001% in paraffin oil); 55.3 with CO2 receptor neuron [5] (0.01% in paraffin oil); 10.0 with CO2 receptor neuron [5] (0.1% in paraffin oil); 5.3 with CO2 receptor neuron [5] (1% in paraffin oil); 6.0 in the experiment with CO2 receptor neuron [5] (10% in paraffin oil).

In the case of `NCCCNCCCCNCCCN` [spermine], the “Average % Inhibition” value with CO2 receptor neuron [4] (0.001% in paraffin oil) is listed as −5.6%; with CO2 receptor neuron [4] (0.01% in paraffin oil), −3.2%; in the experiment with CO2 receptor neuron [4] (0.1% in paraffin oil) it was 76.5%; in the experiment on CO2 receptor neuron [4] (1% in paraffin oil), 94.8%; in the experiment on CO2 receptor neuron [4] (10% in paraffin oil), 95.1%. The “Ave. Activity” value was determined as 52.0 in the experiment on CO2 receptor neuron [5] (0.001% in paraffin oil); 52.3 with CO2 receptor neuron [5] (0.01% in paraffin oil); 14.0 in the experiment on CO2 receptor neuron [5] (0.1% in paraffin oil); 2.7 in the experiment with CO2 receptor neuron [5] (1% in paraffin oil); 2.3 in the experiment with CO2 receptor neuron [5] (10% in paraffin oil).

Turning to `CCc1ccc(C=O)cc1` [4-ethylbenzaldehyde], in the experiment with cpA neuron [1], the “Activation (spikes s^−1)” value turned out to be 2.5 spikes s^−1.

As to `CC(=O)C1=NCCS1` [1-(4,5-dihydro-1,3-thiazol-2-yl)ethanone], the “Activation (spikes s^−1)” value in the experiment on cpA neuron [1] is 8.0 spikes s^−1.

In the case of `CCC(O)c1ccccc1` (stereo not shown) [1-phenylpropan-1-ol], in the experiment with cpA neuron [1], the “Activation (spikes s^−1)” value was −3.5 spikes s^−1.

Regarding `c1cc[nH]c1` [1H-pyrrole], the “Activation (spikes s^−1)” value in the experiment with cpA neuron [1] is reported as 89.8 spikes s^−1.

With `CSC` [methylsulfanylmethane], the “Activation (spikes s−1)” value in the experiment with cpA neuron [1] (cpA neuron, 20 compounds from the top 200 SVM ligand predictions, negative values = inhibition, N = 4) was 99.3 spikes s−1.

Turning to `Cc1ccco1` [2-methylfuran], in the experiment on cpA neuron [1], the “Activation (spikes s^−1)” value is given as 48.0 spikes s^−1.

As for `O=Cc1ccoc1` [furan-3-carbaldehyde], the “Activation (spikes s^−1)” value in the experiment on cpA neuron [1] came out at 85.0 spikes s^−1.

In the case of `CCc1nccnc1C` [2-ethyl-3-methylpyrazine], in the experiment with cpA neuron [1], the “Activation (spikes s^−1)” value was −7.5 spikes s^−1.

Take `CCCc1ccc(O)cc1` [4-propylphenol]: the “Activation (spikes s^−1)” value in the experiment on cpA neuron [1] is recorded as −9.0 spikes s^−1.

Broadly, the % Inhibition is the drop in the measured response relative to a control, in per cent.
